Experimental data taken from ChEMBL document CHEMBL4177530, “Bufospirostenin A and Bufogargarizin C, Steroids with Rearranged Skeletons from the Toad Bufo bufo gargarizans” (J Nat Prod, 2017).
Activity calls are given as the source filed them. The calls are words filed in the database; no cut-off is given here.

How the values were obtained:
[1] = organism: Sus scrofa; experiment: Inhibition of Na/K-ATPase in pig kidney microsomal membranes assessed as reduction in inorganic phosphate release from ATP at 12.5 uM incubated for 15 mins by spectrophotometry; type: cell membranes
[2] = organism: Sus scrofa; experiment: Inhibition of Na/K-ATPase in pig kidney microsomal membranes assessed as reduction in inorganic phosphate release from ATP at 25 uM incubated for 15 mins by spectrophotometry; type: cell membranes

| inhibition [1] | inhibition [2] | Structure (SMILES) |
| --- | --- | --- |
| inactive | inactive | C[C@]12CCC3=C(C=CC4=C(C3)[C@@H]3C[C@H](C4)O3)[C@H]1CC[C@@H]2c1ccc(=O)oc1 |
| 21% | 43% | C=C1CC[C@@]2(OC1)O[C@H]1C[C@H]3[C@@H]4CC=C5C[C@@H](O)C[C@H]5[C@](C)(O)[C@H]4CC[C@]3(C)[C@H]1[C@@H]2C |

| Structure (SMILES) | inhibition [1] | inhibition [2] |
| --- | --- | --- |
| C[C@]12CC[C@H](O)C[C@H]1CC[C@@H]1[C@@H]2CC[C@]2(C)[C@@H](c3ccc(=O)oc3)CC[C@]12O | 100% | 100% |
